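In this assay, cells in 96-well plates receive the compound at five concentrations for 48 hours. Endpoints are linearly interpolated between the surrounding concentrations. GI50 marks 50% less growth.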 The source made the active and inactive calls. Cut-off read from the data, not from the text of the source: active = GI50 up to about 1.1 µM and inactive = higher.
Key:
Assay in all cases: NCI anticancer screen, dose series, 48 h
[1] = test system: IGROV-1
[2] = test system: SF-539
[3] = test system: NCI-H23
[4] = test system: UO-31
[5] = test system: ACHN
[6] = test system: SK-OV-3
[7] = test system: T47D
[8] = test system: SNB-19
[9] = test system: LOX IMVI
[10] = test system: CAKI-1
[11] = test system: SR
[12] = test system: M14
[13] = test system: COLO 205
[14] = test system: SK-MEL-28
[15] = test system: NCI/ADR-RES
[16] = test system: HT-29
[17] = test system: RPMI-8226
[18] = test system: TK-10
[19] = test system: 786-0
[20] = test system: OVCAR-3
[21] = test system: MDA-MB-231
[22] = test system: K562
[23] = test system: HCC 2998
[24] = test system: SN12C
[25] = test system: U-251
[26] = test system: DU-145
[27] = test system: HCT-116
[28] = test system: UACC-62
[29] = test system: MOLT-4
[30] = test system: PC-3
[31] = test system: NCI-H460
[32] = test system: CCRF-CEM
[33] = test system: SW-620
[34] = test system: SF-295
[35] = test system: EKVX
[36] = test system: SK-MEL-5
[37] = test system: SK-MEL-2
[38] = test system: NCI-H226
[39] = test system: BT-549
[40] = test system: HOP-92
[41] = test system: A549
[42] = test system: MDA-N
[43] = test system: OVCAR-8
[44] = test system: OVCAR-4
[45] = test system: HCT-15
[46] = test system: RXF 393
[47] = test system: MCF7
[48] = test system: MDA-MB-435
[49] = test system: HOP-62
[50] = test system: KM12
[51] = test system: SF-268
[52] = test system: UACC-257
[53] = test system: SNB-75
[54] = test system: A498
[55] = test system: OVCAR-5
[56] = test system: HL-60
[57] = test system: Malme-3M
[58] = test system: NCI-H522

CNC(=O)Oc1ccc(-c2cn3cc(OC(=O)NC)ccc3n2)cc1
GI50 [1]: 54 µM (inactive) | GI50 [2]: 27.6 µM (inactive) | GI50 [3]: 87.3 µM (inactive) | GI50 [4]: 26.5 µM (inactive) | GI50 [5]: 29 µM (inactive) | GI50 [6]: > 100 µM (inactive) | GI50 [7]: 31.3 µM (inactive) | GI50 [8]: 43.3 µM (inactive) | GI50 [9]: 34.3 µM (inactive) | GI50 [10]: 34.1 µM (inactive) | GI50 [11]: 21 µM (inactive) | GI50 [12]: 41.7 µM (inactive) | GI50 [13]: 41.4 µM (inactive) | GI50 [14]: 92.7 µM (inactive) | GI50 [15]: 79.1 µM (inactive) | GI50 [16]: 41.5 µM (inactive) | GI50 [17]: 19.8 µM (inactive) | GI50 [18]: 91.6 µM (inactive) | GI50 [19]: 26.7 µM (inactive) | GI50 [20]: 67.8 µM (inactive) | GI50 [21]: > 100 µM (inactive) | GI50 [22]: 22.6 µM (inactive) | GI50 [23]: 49.3 µM (inactive) | GI50 [24]: 42.8 µM (inactive) | GI50 [25]: 36.9 µM (inactive) | GI50 [26]: 68.9 µM (inactive) | GI50 [27]: 33.1 µM (inactive) | GI50 [28]: 28.4 µM (inactive) | GI50 [29]: 20.5 µM (inactive) | GI50 [30]: 49.9 µM (inactive) | GI50 [31]: 39.4 µM (inactive) | GI50 [32]: 17.9 µM (inactive) | GI50 [33]: 35.1 µM (inactive) | GI50 [34]: 64.6 µM (inactive) | GI50 [35]: 96.4 µM (inactive) | GI50 [36]: 26.7 µM (inactive) | GI50 [37]: > 100 µM (inactive) | GI50 [38]: > 100 µM (inactive) | GI50 [39]: > 100 µM (inactive) | GI50 [40]: > 100 µM (inactive) | GI50 [41]: 44.1 µM (inactive) | GI50 [42]: 32.8 µM (inactive) | GI50 [43]: 49.9 µM (inactive) | GI50 [44]: 51.1 µM (inactive) | GI50 [45]: 36.1 µM | GI50 [46]: 60 µM (inactive) | GI50 [47]: 32.4 µM (inactive) | GI50 [48]: 31.7 µM (inactive) | GI50 [49]: 80.4 µM (inactive) | GI50 [50]: 44 µM (inactive) | GI50 [51]: 19.3 µM (inactive) | GI50 [52]: > 100 µM (inactive) | GI50 [53]: 62.4 µM (inactive) | GI50 [54]: 66.4 µM (inactive) | GI50 [55]: > 100 µM (inactive)

CC(=O)NC(Cc1ccccc1)NC(=O)O (configuration not stated)
GI50 [1]: > 100 µM (inactive) | GI50 [2]: > 100 µM (inactive) | GI50 [3]: > 100 µM (inactive) | GI50 [4]: > 100 µM (inactive) | GI50 [5]: > 100 µM (inactive) | GI50 [6]: > 100 µM (inactive) | GI50 [7]: > 100 µM (inactive) | GI50 [8]: > 100 µM (inactive) | GI50 [9]: > 100 µM (inactive) | GI50 [10]: > 100 µM (inactive) | GI50 [11]: > 100 µM (inactive) | GI50 [12]: > 100 µM (inactive) | GI50 [13]: > 100 µM (inactive) | GI50 [56]: > 100 µM (inactive) | GI50 [14]: > 100 µM (inactive) | GI50 [15]: > 100 µM (inactive) | GI50 [16]: > 100 µM (inactive) | GI50 [17]: > 100 µM (inactive) | GI50 [18]: > 100 µM (inactive) | GI50 [19]: > 100 µM (inactive) | GI50 [20]: > 100 µM (inactive) | GI50 [21]: > 100 µM (inactive) | GI50 [22]: > 100 µM (inactive) | GI50 [23]: > 100 µM (inactive) | GI50 [24]: > 100 µM (inactive) | GI50 [25]: > 100 µM (inactive) | GI50 [26]: > 100 µM (inactive) | GI50 [27]: > 100 µM (inactive) | GI50 [57]: > 100 µM (inactive) | GI50 [28]: > 100 µM (inactive) | GI50 [58]: > 100 µM (inactive) | GI50 [29]: > 100 µM (inactive) | GI50 [30]: > 100 µM (inactive) | GI50 [31]: > 100 µM (inactive) | GI50 [32]: > 100 µM (inactive) | GI50 [33]: > 100 µM (inactive) | GI50 [34]: > 100 µM (inactive) | GI50 [35]: > 100 µM (inactive) | GI50 [36]: > 100 µM (inactive) | GI50 [37]: > 100 µM (inactive) | GI50 [38]: > 100 µM (inactive) | GI50 [39]: > 100 µM (inactive) | GI50 [40]: > 100 µM (inactive) | GI50 [41]: > 100 µM (inactive) | GI50 [42]: > 100 µM (inactive) | GI50 [43]: > 100 µM (inactive) | GI50 [44]: > 100 µM (inactive) | GI50 [45]: > 100 µM | GI50 [46]: > 100 µM (inactive) | GI50 [47]: > 100 µM (inactive) | GI50 [48]: > 100 µM (inactive) | GI50 [49]: > 100 µM (inactive) | GI50 [50]: > 100 µM (inactive) | GI50 [51]: > 100 µM (inactive) | GI50 [52]: > 100 µM (inactive) | GI50 [53]: > 100 µM (inactive) | GI50 [54]: > 100 µM (inactive) | GI50 [55]: > 100 µM (inactive)

OC[C@H]1CCCC1O (some centres not stated)
GI50 [1]: > 100 µM (inactive) | GI50 [2]: > 100 µM (inactive) | GI50 [3]: > 100 µM (inactive) | GI50 [4]: > 100 µM (inactive) | GI50 [5]: > 100 µM (inactive) | GI50 [7]: > 100 µM (inactive) | GI50 [8]: > 100 µM (inactive) | GI50 [10]: > 100 µM (inactive) | GI50 [11]: > 100 µM (inactive) | GI50 [12]: > 100 µM (inactive) | GI50 [13]: > 100 µM (inactive) | GI50 [56]: > 100 µM (inactive) | GI50 [14]: > 100 µM (inactive) | GI50 [15]: > 100 µM (inactive) | GI50 [16]: > 100 µM (inactive) | GI50 [17]: > 100 µM (inactive) | GI50 [18]: > 100 µM (inactive) | GI50 [19]: > 100 µM (inactive) | GI50 [20]: > 100 µM (inactive) | GI50 [21]: > 100 µM (inactive) | GI50 [22]: > 100 µM (inactive) | GI50 [23]: > 100 µM (inactive) | GI50 [24]: > 100 µM (inactive) | GI50 [25]: > 100 µM (inactive) | GI50 [26]: > 100 µM (inactive) | GI50 [27]: > 100 µM (inactive) | GI50 [57]: > 100 µM (inactive) | GI50 [28]: > 100 µM (inactive) | GI50 [58]: > 100 µM (inactive) | GI50 [29]: > 100 µM (inactive) | GI50 [30]: > 100 µM (inactive) | GI50 [31]: > 100 µM (inactive) | GI50 [32]: > 100 µM (inactive) | GI50 [33]: > 100 µM (inactive) | GI50 [34]: > 100 µM (inactive) | GI50 [36]: > 100 µM (inactive) | GI50 [37]: > 100 µM (inactive) | GI50 [38]: > 100 µM (inactive) | GI50 [39]: > 100 µM (inactive) | GI50 [40]: > 100 µM (inactive) | GI50 [41]: > 100 µM (inactive) | GI50 [42]: > 100 µM (inactive) | GI50 [43]: > 100 µM (inactive) | GI50 [44]: > 100 µM (inactive) | GI50 [45]: > 100 µM | GI50 [46]: > 100 µM (inactive) | GI50 [47]: > 100 µM (inactive) | GI50 [48]: > 100 µM (inactive) | GI50 [50]: > 100 µM (inactive) | GI50 [51]: > 100 µM (inactive) | GI50 [52]: > 100 µM (inactive) | GI50 [53]: 73.1 µM (inactive) | GI50 [54]: > 100 µM (inactive) | GI50 [55]: > 100 µM (inactive)

— ChEMBL document CHEMBL1201862, “PubChem BioAssay data set” (2004)
